Source: patent publication US12064445B2, “Cytarabine conjugates for cancer therapy” (Biosight Ltd., priority 2015, dated 2024)
pIC50: −log10 of the molar value. Read-outs that look alike come from different tables or passages of the source.

What was measured:
[1] = test system: human leukemia cell lines; assay: Astarabine metabolite assay in human leukemia cell lines; type: cell-based
AML and ALL patients = assay: Phase I/IIa open-label clinical study in AML and ALL patients; type: in vivo, human
Experimental: Phase I/IIa, open-label, uncontrolled, single-center study enrolled patients of 18 or more years of age with relapsed or refractory acute leukemia or those unfit for intensive therapy, as judged by the treating physician. The study was approved by the Rambam IRB (approval #0384-11).
Patients were enrolled into 4 Astarabine® escalating dose cohorts, each included 3 patients. Treatment was administered as a 1-hour single daily infusion for 6 consecutive days.
Astarabine® doses for each infusion: • For age ≤50 years: 0.5 g/m^2, 1.5 g/m^2, 3 g/m^2, 4.5 g/m^2 • For age >50 years: 0.3 g/m^2, 0.8 g/m^2, 1.5 g/m^2, 2.3 g/m^2 Results

[2] = Maximal tolerated dose, repeated dose IP (7 days) in mice; type: in vivo; settings: for MTD at 7 days: TRC, mouse, in vivo
From the text: All mice were inspected daily during drug administration and recovery period. Clinical evaluation included mobility observations, food and water consumption. […] Hematology and biochemical blood tests were shown normal at the end of the experiment.

in vivo = settings: IRC, mouse
Experimental: IRC mice were injected with Astarabine® IV daily for 14 days in a dosage ranging from 400 mg/kg/day to 1200 mg/kg/day. Based on the results of this 14 days intravenous repeated dose study in mice, it was concluded that the IV maximal tolerated dose for Astarabine® is 400 mg/kg/day, administrated for 14 consecutive days. The total administered dose in this group was 5600 mg/kg. All measured parameters such as clinical observations, neurobehavioral observations, motor activity observations, body weight, food consumption, blood analysis and urine analysis, were within the normal range as compared to the non-treated group. Thus, Astarabine® in a concentration of 400 mg/kg/day was considered as the NOAEL (No Adverse Effect Level) in mice. In vivo tolerability/toxicology studies to determine the MTD of a single dose in mice are shown in FIG. 1A and of repeated doses in mice are shown in FIG. 1B.

RPMI8226 (Human myeloma) = assay: MTT assay, IC50 in tumor cell lines; type: cell-based; settings: RPMI-8226, RPMI8226, 72 hr
Experimental: The effect of Astarabine® on different cell lines was evaluated. Briefly, various cell lines were obtained from ATCC or ECACC. Hematological cells were grown in RPMI medium containing 10-20% FBS and 1% glutamine. Solid tumor cells were grown in DMEM medium containing 10-20% FBS and 1% glutamine. Cells were seeded into 96-well plates, 50,000 cells/ml, 0.2 ml per well. […] The study was conducted in triplicates, PBS was used as control. Plates were incubated for 72 hr at 37° C., 5% CO2. At the end of the exposure period, a MTT assay using the MTT reagent [3-(4,5-dimethylthiazol-2-yl)-2,5-diphenyltetrazolium bromide] was performed. MTT was added to each well at a concentration of 5 mg/ml in a volume of 0.02 ml. Plates were incubated at 37° C. for 3 h. The plates were centrifuged at 3500 rpm for 5 minutes and the supernatant was aspired. The pellets which contained MTT crystals were each dissolved in 0.2 ml DMSO. Absorbance was determined using ELISA reader at a wavelength of 570 nm.

CCRF-CEM cells = assay: Human leukemia hollow fiber model transplanted in nude mice (CCRF-CEM); type: in vivo; settings: 7 consecutive days
Experimental: Next, the efficacy of Astarabine® in vivo was studied on a human leukemia (Molt-4 and CCRF-CEM cells) hollow fiber model transplanted in nude mice. Astarabine® was injected at doses of 6.25 mg/mouse/day and 25 mg/mouse/day intraperitoneally (IP), daily, for 7 consecutive days; cytarabine was injected at a dose of 1.5 mg/mouse/day. Leukemia cell growth was measured using the MTT assay as described in Example 1 herein above.

[3] = patient 1, Refractory AML, 0.3 gr/m^2/day
[4] = patient 2, Refractory AML, 0.3 gr/m^2/day
[5] = patient 3, Refractory AML, 0.5 gr/m^2/day
[6] = patient 4, Secondary AML, 0.8 gr/m^2/day
[7] = patient 5, Secondary AML, 0.8 gr/m^2/day
[8] = patient 6, Refractory AML, 0.8 gr/m^2/day
[9] = patient 8, Secondary AML, 1.5 gr/m^2/day
[10] = patient 9, Secondary AML, 1.5 gr/m^2/day
[11] = patient 10, Relapsed AML, 2.3 gr/m^2/day

## N[C@@H](CC(=O)Nc1ccn([C@@H]2O[C@H](CO)[C@@H](O)[C@@H]2O)c(=O)n1)C(=O)O [Astarabine®]
[1]
  Metabolites detected in cells: detected free cytarabine metabolites
AML and ALL patients; 10 patients, 0.3-2.3 g/m^2/day, 1-hour daily infusion for 6 days, apart from neutropenic fever
  Adverse effects during or post therapy: No significant adverse effects
AML and ALL patients; even for patients of 80 or more years of age
  Safety and tolerability: safe and very well tolerated
AML and ALL patients; [3]
  Follow-up in months: 3 months
  BM blasts Day 14: 90%
  BM blasts Day 30: 83%
AML and ALL patients; patient 1, Refractory AML, 0.3 gr/m^2/day x 6 days infusion
  BM blasts Day 0: 100%
AML and ALL patients; [4]
  Follow-up in months: 2 months
  BM blasts Day 0: 100%
  BM blasts Day 14: 64%
  BM blasts Day 30: 70%
AML and ALL patients; [5]
  Follow-up in months: 6 months
  BM blasts Day 0: 90%
  BM blasts Day 14: 37%
  BM blasts Day 30: 60%
AML and ALL patients; [6]
  Follow-up in months: 4 months
  BM blasts Day 14: 39%
  BM blasts Day 30: 63%
AML and ALL patients; [7]
  Follow-up in months: 9 months
  BM blasts Day 0: 80%
  BM blasts Day 14: 5%
  BM blasts Day 30: 0%
AML and ALL patients; [8]
  Follow-up in months: 1 months
  BM blasts Day 0: 85%
  BM blasts Day 14: 100%
  BM blasts Day 30: 100%
AML and ALL patients; patient 7, ALL, 1.5 gr/m^2/day
  Follow-up in months: 7 months
  BM blasts Day 0: 89%
  BM blasts Day 14: 3%
  BM blasts Day 30: 0.2%
AML and ALL patients; [9]
  Follow-up in months: 6 months
  BM blasts Day 0: 63%
  BM blasts Day 14: 80%
  BM blasts Day 30: 8%
AML and ALL patients; [10]
  Follow-up in months: 1 months
  Outcome: Died
  BM blasts Day 0: 100%
AML and ALL patients; [11]
  Follow-up in months: 1 months
  Outcome: Died
  BM blasts Day 0: 100%
AML and ALL patients; patients having acute leukemia, 0.3-2.3 g/m^2/day for 6 days
  Remission: three out of ten patients
AML and ALL patients; patients of 75 or more years of age having AML or ALL, daily dose of about 2 g/m^2 or higher
  Safety and tolerability: safe and well tolerated
[2]; IP 7 days, 156 to 781 mg/kg/day
  Gross necropsy: no abnormal findings
[2]; IP 7 days, 156 to 781 mg/kg/day, end of experiment
  Hematology and biochemical blood tests: normal
[2]; 781 mg/kg/day IP for 7 days, read-out: Accumulative dose at MTD
  MTD at 7 days: 5470 mg/kg
[2]; IP for 7 days, read-out: MTD (maximal tolerated dose)
  MTD at 7 days: 781 mg/kg/day
In vivo; 14 days
  IV maximal tolerated dose: 400 mg/kg/day
In vivo; iv
  NOAEL at 14 days: 400 mg/kg/day
In vivo; iv, 400 mg/kg/day
  MTD at 14 days: 5600 mg/kg
RPMI8226 (Human myeloma)
  pIC50: 3.84 to 4.48
CCRF-CEM cells; 6.25 mg/mouse/day IP
  Inhibition of growth of CCRF-CEM cells: 71.9%
CCRF-CEM cells; 25 mg/mouse/day IP
  Inhibition of growth of CCRF-CEM cells: 72.0%
